Where two headings read alike, the source gives them in different places.
Experiments:
human H3 receptor = target: T1, human H3 receptor (Homo sapiens, UniProt Q9Y5N1); test: Human H3 radioligand binding ([3H]-N-alpha-methylhistamine, SPA); conditions: Table C; human H3 binding; read-out: Human H3 Ki
T1 construct: expressed in transfected cells
In short: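 SPA competition binding on membranes from CHO cells stably expressing human H3 receptor (10 μg protein/well) with ~1 nM [3H]-N-alpha-methylhistamine and compound at 0.01 nM-30 μM. Incubation 4 h at room temperature in 50 mM Tris-HCl pH 7.4, 5 mM MgCl2, 0.1% BSA; non-specific binding defined with 10 μM clobenpropit.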

[1] = target: T2, rat histamine H3 receptor (Rattus norvegicus, UniProt Q9QYN8); test: Rat H3 radioligand binding ([3H]-N-alpha-methylhistamine, SPA); conditions: Table C, rat H3 binding, read-out: Rat H3 Ki
T2 construct: encoding the entire 445-amino-acid rat histamine H3 receptor; expressed in transfected cells; membrane preparation
In short: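 Membranes from CHO-A3 cells stably expressing full-length rat H3 receptor (10 μg protein/well) incubated 4 h at room temperature, protected from light, with ~1 nM [3H]-N-alpha-methylhistamine and compound (0.01 nM-30 μM) in 50 mM Tris HCl pH 7.4, 5 mM MgCl2, 0.1% BSA. Binding read by SPA; 10 μM clobenpropit defined non-specific binding.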

T1 sequence (Q9Y5N1 whole entry): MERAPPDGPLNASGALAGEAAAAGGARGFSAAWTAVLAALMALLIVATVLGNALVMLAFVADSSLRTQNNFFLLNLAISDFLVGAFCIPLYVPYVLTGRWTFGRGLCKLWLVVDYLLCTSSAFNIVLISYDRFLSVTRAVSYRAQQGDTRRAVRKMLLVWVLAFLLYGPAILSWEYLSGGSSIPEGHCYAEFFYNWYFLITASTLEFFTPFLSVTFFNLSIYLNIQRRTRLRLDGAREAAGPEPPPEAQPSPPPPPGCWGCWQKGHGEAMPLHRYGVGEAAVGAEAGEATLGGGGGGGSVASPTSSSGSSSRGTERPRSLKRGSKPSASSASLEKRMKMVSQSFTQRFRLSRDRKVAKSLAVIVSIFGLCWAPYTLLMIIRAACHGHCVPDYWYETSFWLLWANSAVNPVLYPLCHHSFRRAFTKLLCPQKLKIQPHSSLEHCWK
T2 sequence (Q9QYN8 whole entry): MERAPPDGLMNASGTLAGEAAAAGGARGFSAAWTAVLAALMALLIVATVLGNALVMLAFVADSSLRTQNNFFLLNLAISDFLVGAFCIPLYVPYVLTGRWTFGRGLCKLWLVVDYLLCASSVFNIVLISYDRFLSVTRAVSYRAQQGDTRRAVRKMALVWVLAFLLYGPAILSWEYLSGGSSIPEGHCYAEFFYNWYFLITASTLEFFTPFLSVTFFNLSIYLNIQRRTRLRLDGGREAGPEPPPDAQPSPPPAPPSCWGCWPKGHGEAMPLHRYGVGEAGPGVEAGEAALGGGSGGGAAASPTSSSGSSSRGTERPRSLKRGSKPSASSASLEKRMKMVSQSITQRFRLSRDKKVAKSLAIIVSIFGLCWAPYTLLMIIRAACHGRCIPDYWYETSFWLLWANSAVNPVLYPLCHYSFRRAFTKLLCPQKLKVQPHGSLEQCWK

Compound | Ki (human H3 receptor) [nM] | Ki [1] [nM] | melting point | Ki ([1]; given as numeric bound) [nM]
c1cc2c(cc1N1CCNCC1)CCC1(CCN(C3CCC3)CC1)O2 [Example 377] | < 200 | < 200 | 116 to 118 °C | 
c1cnc(Oc2ccc3c(c2)CCC2(CCN(C4CCC4)CC2)O3)nc1 [Example 400] | 200 to 1000 |  | 258 to 260 °C | > 300
CNC(=O)c1ccc(Oc2ccc3c(c2)CCC2(CCN(C4CCC4)CC2)O3)nc1 [Example 401] | < 200 | < 200 | 245 to 247 °C | 
c1cc2c(cc1N1CCOCC1)CCC1(CCN(C3CCC3)CC1)O2 [Example 403] | < 200 | < 200 | > 285 °C (dec.) | 
FC1(F)CCN(c2ccc3c(c2)CCC2(CCN(C4CCC4)CC2)O3)CC1 [Example 404] | < 200 | < 200 | > 283 °C (dec.) | 
OC1CCN(c2ccc3c(c2)CCC2(CCN(C4CCC4)CC2)O3)CC1 [Example 405] | < 200 | < 200 | > 265 °C (dec.) | 
O=S1(=O)CCN(c2ccc3c(c2)CCC2(CCN(C4CCC4)CC2)O3)CC1 [Example 406] | < 200 | < 200 | > 285 °C (dec.) | 
CN(C)C(=O)c1ccc(Oc2ccc3c(c2)CCC2(CCN(C4CCC4)CC2)O3)nc1 [Example 407] | < 200 | 200 to 1000 | 267 to 269 °C | 
CNC(=O)c1ccc(N2CCN(c3ccc4c(c3)CCC3(CCN(C5CCC5)CC3)O4)CC2)nc1 [Example 409] | < 200 | < 200 | 297 to 299 °C | 
c1ccc(OC2CCN(c3ccc4c(c3)CCC3(CCN(C5CCC5)CC3)O4)CC2)nc1 [Example 412] | < 200 | < 200 | 240 to 245 °C | 
FC1(F)CCN(c2ccc3c(c2)CCC2(CCN(C4CCC4)CC2)O3)C1 [Example 413] | < 200 | < 200 | > 275 °C (dec.) | 
F[C@@H]1CCN(c2ccc3c(c2)CCC2(CCN(C4CCC4)CC2)O3)C1 [Example 414] | < 200 | < 200 | 275 to 280 °C | 
c1cnc(Oc2ccc3c(c2)CCC2(CCN(C4CCC4)CC2)O3)cn1 [Example 415] | < 200 | < 200 | 256 to 258 °C | 
COCCNC(=O)c1ccc(Oc2ccc3c(c2)CCC2(CCN(C4CCC4)CC2)O3)nc1 [Example 416] | < 200 | < 200 | 235 to 237 °C | 
CC(C)(C)OC(=O)N1CCC(Oc2ccc3c(c2)CCC2(CCN(C4CCC4)CC2)O3)CC1 [Example 417, 1′-cyclobutyl-6-(piperidine-1-carboxylic acid tert-butyl ester-4-yloxy)-3,4-dihydro spiro-[2H-benzopyran-2,4′-piperidine]] | < 200 | < 200 | 118 to 120 °C | 
O=C(C1CCN(c2ccc3c(c2)CCC2(CCN(C4CCC4)CC2)O3)CC1)N1CCCC1 [Example 418] | < 200 | < 200 | 290 to 292 °C | 
O=c1ccc(N2CCN(c3ccc4c(c3)CCC3(CCN(C5CCC5)CC3)O4)CC2)n[nH]1 [Example 419] | < 200 | < 200 | 278 to 280 °C | 
c1cc2c(cc1N1CCCC1)CCC1(CCN(C3CCC3)CC1)O2 [Example 420] | < 200 | < 200 | > 275 °C (dec.) | 
O=S1(=O)CCN(c2ccc3c(c2)COC2(CCN(C4CCC4)CC2)O3)CC1 [Example 421] | < 200 | < 200 | 157 to 158 °C | 
FC1(F)CCN(c2ccc3c(c2)COC2(CCN(C4CCC4)CC2)O3)CC1 [Example 422] | < 200 | 200 to 1000 | > 250 °C (dec.) | 

Next, values leading:

Ki (human H3 receptor) [nM] | Ki [1] [nM] | melting point | Ki ([1]; given as numeric bound) [nM] | Compound
< 200 | < 200 | 159 to 161 °C |  | Cc1cccc(N2CCN(c3ccc4c(c3)CCC3(CCN(C5CCC5)CC3)O4)CC2)n1 [Example 366]
< 200 | < 200 | 138 to 139 °C |  | FC(F)(F)c1cccnc1N1CCN(c2ccc3c(c2)CCC2(CCN(C4CCC4)CC2)O3)CC1 [Example 367]
< 200 | < 200 | 171 to 172 °C |  | c1ccc(N2CCN(c3ccc4c(c3)CCC3(CCN(C5CCC5)CC3)O4)CC2)nc1 [Example 368]
< 200 | < 200 | 156 to 157 °C |  | c1cnc(N2CCN(c3ccc4c(c3)CCC3(CCN(C5CCC5)CC3)O4)CC2)nc1 [Example 369]
< 200 | < 200 | 168 to 169 °C |  | c1cnc(N2CCN(c3ccc4c(c3)CCC3(CCN(C5CCC5)CC3)O4)CC2)cn1 [Example 370]
< 200 | < 200 | 168 to 169 °C |  | Clc1ccc(-c2ccc3c(c2)CCC2(CCN(C4CCC4)CC2)O3)cn1 [Example 371]
< 200 | < 200 | 212 to 213 °C |  | FC(F)(F)c1ccc(N2CCN(c3ccc4c(c3)CCC3(CCN(C5CCC5)CC3)O4)CC2)nc1 [Example 372]
< 200 | < 200 | 157 to 158 °C |  | COC(=O)N1CCN(c2ccc3c(c2)CCC2(CCN(C4CCC4)CC2)O3)CC1 [Example 373]
< 200 | < 200 | 182 to 184 °C |  | c1csc(N2CCN(c3ccc4c(c3)CCC3(CCN(C5CCC5)CC3)O4)CC2)n1 [Example 374]
< 200 | < 200 | 240 to 242 °C |  | CS(=O)(=O)N1CCN(c2ccc3c(c2)CCC2(CCN(C4CCC4)CC2)O3)CC1 [Example 375]
< 200 | < 200 | 169 to 171 °C |  | O=C(C1CC1)N1CCN(c2ccc3c(c2)CCC2(CCN(C4CCC4)CC2)O3)CC1 [Example 376]
< 200 | < 200 | 173 to 175 °C |  | CC(C)C(=O)N1CCN(c2ccc3c(c2)CCC2(CCN(C4CCC4)CC2)O3)CC1 [Example 381]
< 200 | < 200 | 243 to 245 °C |  | COc1cccc(N2CCN(c3ccc4c(c3)CCC3(CCN(C5CCC5)CC3)O4)CC2)n1 [Example 382]
< 200 | < 200 | 258 to 260 °C |  | CS(=O)(=O)c1ccc(N2CCN(c3ccc4c(c3)CCC3(CCN(C5CCC5)CC3)O4)CC2)nc1 [Example 383]
< 200 | < 200 | 256 to 258 °C |  | CCOC(=O)C1CCN(c2ccc3c(c2)CCC2(CCN(C4CCC4)CC2)O3)CC1 [Example 384]
< 200 | < 200 | 202 to 203 °C |  | COC(=O)c1ccc(N2CCN(c3ccc4c(c3)CCC3(CCN(C5CCC5)CC3)O4)CC2)nc1 [Example 385]
< 200 | < 200 | 292 to 294 °C |  | O=C(N1CCOCC1)N1CCN(c2ccc3c(c2)CCC2(CCN(C4CCC4)CC2)O3)CC1 [Example 386]
< 200 | < 200 | 133 to 135 °C |  | O=C(c1ccco1)N1CCN(c2ccc3c(c2)CCC2(CCN(C4CCC4)CC2)O3)CC1 [Example 387]
< 200 | < 200 | 165 to 167 °C |  | O=C(N1CCCC1)N1CCN(c2ccc3c(c2)CCC2(CCN(C4CCC4)CC2)O3)CC1 [Example 388]
< 200 | < 200 | 229 to 231 °C |  | Clc1ccc(N2CCN(c3ccc4c(c3)CCC3(CCN(C5CCC5)CC3)O4)CC2)nn1 [Example 389]
< 200 | < 200 | 191 to 193 °C |  | NC(=O)c1ccc(Oc2ccc3c(c2)CCC2(CCN(C4CCC4)CC2)O3)nc1 [Example 390]
< 200 | < 200 | 285 to 290 °C |  | CCOC1CCN(c2ccc3c(c2)CCC2(CCN(C4CCC4)CC2)O3)CC1 [Example 391]
< 200 | < 200 | 272 to 274 °C |  | CN(C)C(=O)N1CCN(c2ccc3c(c2)CCC2(CCN(C4CCC4)CC2)O3)CC1 [Example 392]
< 200 | < 200 | > 280 °C (dec.) |  | c1cc2c(cc1N1CCCCC1)CCC1(CCN(C3CCC3)CC1)O2 [Example 393]
< 200 | < 200 | 272 to 274 °C |  | CCN(CC)C(=O)N1CCN(c2ccc3c(c2)CCC2(CCN(C4CCC4)CC2)O3)CC1 [Example 394]
< 200 | < 200 | 276 to 278 °C |  | CC(=O)N1CCCN(c2ccc3c(c2)CCC2(CCN(C4CCC4)CC2)O3)CC1 [Example 395]
< 200 | < 200 | 264 to 267 °C |  | CNC(=O)C1CCN(c2ccc3c(c2)CCC2(CCN(C4CCC4)CC2)O3)CC1 [Example 396]
< 200 | < 200 | > 265 °C (dec.) |  | FC1CCN(c2ccc3c(c2)CCC2(CCN(C4CCC4)CC2)O3)CC1 [Example 397]
< 200 | < 200 | 135 to 137 °C |  | c1cc2c(cc1N1CCC3(CC1)OCCO3)CCC1(CCN(C3CCC3)CC1)O2 [Example 398]
< 200 | < 200 | > 247 °C (dec.) |  | O=C1CCN(c2ccc3c(c2)CCC2(CCN(C4CCC4)CC2)O3)CC1 [Example 399]

— US8513232B2, “Substituted spirocyclic piperidine derivatives as histamine-3 (H3) receptor ligands” (Cephalon, Inc., priority 2008, dated 2013)
